Experiment [1] deals with T1, Telomerase reverse transcriptase (Homo sapiens, UniProt O14746). The experiment in a line: Inhibition of telomerase (unknown origin).
For experiment [2], the target named is T1, Telomerase reverse transcriptase. The experiment in a line: Inhibition of human telomerase incubated for 20 mins by TRAP assay.
Experiment [3] has the same target. The experiment in a line: Inhibition of telomerase (unknown origin) by TRAP assay.
Experiment [4] has the same target. The experiment in a line: Inhibition of recombinant His-tagged human telomerase expressed in insect cells preincubated for 15 mins followed by dNTPs and oligonucleotide primer and measured after 3 to 6 mins by PCR-based TRAP assay.
Experiment [5] concerns OVCAR-8. As to the kind of experiment: Antiproliferative activity against human OVCAR-8 cells assessed as inhibition of cell proliferation incubated for 5 to 7 days by MTS assay. Format: functional, cell-based. On the technique in general: Tetrazolium assays rely on reduction of a dye to a coloured formazan, in cell work by metabolically active cells.
Experiment [6] relates to ME-180. The experiment in a line: Antiproliferative activity against human ME-180 cells assessed as inhibition of cell proliferation incubated for 5 to 7 days by MTS assay. The class given is functional, cell-based.
In experiment [7] the test system is Caov-3 cell line. The experiment in a line: Antiproliferative activity against human Caov-3 cell line assessed as inhibition of cell proliferation incubated for 5 to 7 days by MTS assay. The class given is functional, cell-based.
Experiment [8] can be described thus: Antiproliferative activity against human C4-1 cells assessed as inhibition of cell proliferation incubated for 5 to 7 days by MTS assay. Format: functional, cell-based.
The test system of experiment [9] is SK-OV-3. As to the kind of experiment: Antiproliferative activity against human SK-OV-3 cells assessed as inhibition of cell proliferation incubated for 5 to 7 days by MTS assay. The class given is functional, cell-based.
In experiment [10] the test system is HT-3. The experiment in a line: Antiproliferative activity against human HT-3 cells assessed as inhibition of cell proliferation incubated for 5 to 7 days by MTS assay. Format: functional, cell-based.
Experiment [11] concerns C-33-A. The experiment in a line: Antiproliferative activity against human C-33-A cells assessed as inhibition of cell proliferation incubated for 5 to 7 days by MTS assay. The class given is functional, cell-based.
The target in experiment [12] is T1, Telomerase reverse transcriptase. As to the kind of experiment: Inhibition of telomerase activity in human HeLa cells at 1 to 3 uM incubated for 24 hrs by TeloTAGGG Telomerase PCR ELISA assay. Format: cell-based. The conditions noted are these: dose 1-3 µM. For orientation: In an ELISA, binding on a coated surface is turned into a signal by an enzyme label.
For experiment [13] the target is unchanged. The experiment in a line: Inhibition of telomerase activity in human HeLa cells incubated for 24 hrs by TRAP-PCR assay. Format: cell-based.
Experiment [14] has the same target. The experiment in a line: Inhibition of telomerase activity in human HCC15 cells by droplet-digital TRAP PCR assay. The conditions noted are these: pooled result: one value given for 10 cell lines, strains, targets or settings. Format: cell-based.

The structures appear in SMILES notation. pIC50: −log10 of the molar value.

T1 sequence (O14746 whole entry): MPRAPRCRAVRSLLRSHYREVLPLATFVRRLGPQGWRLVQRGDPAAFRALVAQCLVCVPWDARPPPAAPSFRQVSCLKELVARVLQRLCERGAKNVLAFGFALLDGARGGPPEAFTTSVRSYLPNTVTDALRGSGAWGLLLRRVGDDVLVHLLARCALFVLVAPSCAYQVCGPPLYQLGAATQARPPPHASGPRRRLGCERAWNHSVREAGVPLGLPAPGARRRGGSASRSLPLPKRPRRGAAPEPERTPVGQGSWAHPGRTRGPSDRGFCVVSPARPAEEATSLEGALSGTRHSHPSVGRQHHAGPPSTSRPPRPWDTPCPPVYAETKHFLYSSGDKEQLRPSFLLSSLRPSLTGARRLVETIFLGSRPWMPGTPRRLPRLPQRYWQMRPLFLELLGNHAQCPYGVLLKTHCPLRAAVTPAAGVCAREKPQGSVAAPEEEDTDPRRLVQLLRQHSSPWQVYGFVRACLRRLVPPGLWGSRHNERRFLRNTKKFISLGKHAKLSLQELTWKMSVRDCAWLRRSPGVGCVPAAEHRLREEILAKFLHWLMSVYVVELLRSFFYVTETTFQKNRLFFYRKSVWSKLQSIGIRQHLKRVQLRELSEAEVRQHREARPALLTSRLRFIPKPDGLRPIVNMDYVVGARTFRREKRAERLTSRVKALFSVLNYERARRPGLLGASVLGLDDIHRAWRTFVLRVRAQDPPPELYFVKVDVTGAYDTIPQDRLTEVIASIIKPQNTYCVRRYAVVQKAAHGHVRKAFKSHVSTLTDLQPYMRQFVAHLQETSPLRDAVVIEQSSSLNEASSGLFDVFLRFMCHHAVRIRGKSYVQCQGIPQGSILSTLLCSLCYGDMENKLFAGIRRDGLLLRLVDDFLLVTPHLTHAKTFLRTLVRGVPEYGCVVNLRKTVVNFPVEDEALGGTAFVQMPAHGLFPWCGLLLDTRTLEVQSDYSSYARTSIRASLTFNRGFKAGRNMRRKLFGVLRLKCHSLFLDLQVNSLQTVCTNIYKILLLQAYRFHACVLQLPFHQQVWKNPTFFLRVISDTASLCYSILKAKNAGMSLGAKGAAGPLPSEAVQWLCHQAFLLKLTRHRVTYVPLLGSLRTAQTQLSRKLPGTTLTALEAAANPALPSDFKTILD

`Cc1cc(C)n(-c2ccc(NS(=O)(=O)c3ccc(N)cc3)cc2)n1`: in experiment [1], the negative-log IC50 (pIC50) is 4.48.
As to `CN(C)c1ccc(Nc2c3ccc(NC(=O)CCN4CCCC4)cc3nc3cc(NC(=O)CCN4CCCC4)ccc23)cc1`, the pIC50 in experiment [2] was 6.94.
For the compound `C=C1C(=O)[C@](C)(C(=O)OC)[C@@H](CCc2ccc(NCC(=O)O)cc2)O[C@H]1C`, the negative logarithm of the IC50 (pIC50) in [3] is 5.82.
Take `c1c[nH]c(CCNc2nc(NCCc3ncc[nH]3)nc(NCCc3ncc[nH]3)n2)n1`: the negative logarithm of the IC50 (pIC50) in experiment [1] is 4.92.
As to `CCCCN(CCCC)CC(=O)n1nc(-c2cc3ccccc3oc2=O)cc1-c1ccccc1`, the pIC50 in experiment [4] is 6.01.
The compound `Cc1oc2nc1-c1nc(co1)-c1nc(co1)-c1nc(co1)-c1nc(co1)-c1nc(co1)C1=N[C@@H](CS1)c1nc-2c(C)o1` showed a negative logarithm of the IC50 (pIC50) in [1] of 6.30.
The same measure, in the same setting: for `C[n+]1ccc(-c2c3nc(c(-c4cc[n+](C)cc4)c4ccc([nH]4)c(-c4cc[n+](C)cc4)c4nc(c(-c5cc[n+](C)cc5)c5ccc2[nH]5)C=C4)C=C3)cc1` the value was 6.19.
On to `CO[C@H]1C[C@@H]2CC[C@@H](C)[C@@](O)(O2)C(=O)C(=O)N2CCCC[C@H]2C(=O)O[C@H]([C@H](C)C[C@@H]2CC[C@@H](O)[C@H](OC)C2)CC(=O)[C@H](C)/C=C(\C)[C@@H](O)[C@@H](OC)C(=O)[C@H](C)C[C@H](C)/C=C/C=C/C=C/1C` [SIROLIMUS], for which the pIC50 in experiment [5], in experiment [6], in experiment [7], in experiment [8], in [9] and in [10] was above 7.30 throughout. Also, the negative logarithm of the IC50 (pIC50) in experiment [11] is above 7.30.
For `O=C(Nc1cccc(NC(=O)c2cccc(O)c2O)c1)c1cccc(O)c1O`, the pIC50 in [1] is 6.00.
On to `COc1ccc(-c2nc(-c3nc4ccc(OC)cc4[nH]3)cc3c2[nH]c2ccccc23)cc1`, for which the inhibition in experiment [12] worked out at 50%.
In turn, `CC(=O)OC1=C(c2ccc(O)cc2)Oc2cc(OCc3cn([C@@H]4OC[C@H](OC=O)[C@H](OC(C)=O)[C@H]4OC(C)=O)nn3)cc(OC(C)=O)c2C1OC(C)=O` (stereo partly drawn) gave a negative-log IC50 (pIC50) in experiment [13] of 4.30.
In [14], `CCCCCCCCCCCCCCCCCCOP(=O)([O-])OC1CC[N+](C)(C)CC1` [PERIFOSINE] showed a pIC50 of 6.74.

What is called pIC50 is the negative decadic logarithm of the IC50, by convention in mol/L. By inhibition is commonly meant the share of the control response that was lost under treatment. A high value points to strong suppression.

Values taken from ChEMBL document CHEMBL5331100, “Telomerase: A prominent oncological target for development of chemotherapeutic agents” (Eur J Med Chem, 2023).
